The source of these data is ChEMBL document CHEMBL3045122, “Synthesis, in vitro antimicrobial, antiproliferative, and QSAR studies of N-(substituted phenyl)-2/4-(1H-indol-3-ylazo)-benzamides” (Med Chem Res, 2013).

The subject of experiment [1] is Escherichia coli. The experiment in a line: Ratio of MBC to MIC for Escherichia coli. Type of experiment: functional.
The subject of experiment [2] is Aspergillus niger. The experiment in a line: Antifungal activity against Aspergillus niger assessed as growth inhibition after 7 days by tube dilution method. Type of experiment: functional.
Experiment [3] relates to Aspergillus niger. The experiment in a line: Ratio of MFC to MIC for Aspergillus niger. The class given is functional.
Experiment [4] deals with HCT-116. The experiment in a line: Cytotoxicity against Homo sapiens (human) HCT116 cells assessed as growth inhibition after 72 hr by MTT assay. The class given is functional, cell-based. (Tetrazolium dyes change colour on reduction, which living cells bring about.)
Experiment [5] relates to Escherichia coli. Briefly: Bactericidal activity against Escherichia coli. The class given is functional.
The subject of experiment [6] is Candida albicans. Briefly: Ratio of MFC to MIC for Candida albicans. The class given is functional.
The test system of experiment [7] is Bacillus subtilis. The experiment in a line: Bactericidal activity against Bacillus subtilis. The class given is functional.
Experiment [8] concerns P388. The experiment in a line: Cytotoxicity against Mus musculus (mouse) P388 cells assessed as growth inhibition after 72 hr by MTT assay. The class given is functional, cell-based.
Experiment [9] deals with Bacillus subtilis. Briefly: Antibacterial activity against Bacillus subtilis assessed as growth inhibition after 24 hr by tube dilution method. The class given is functional.
Experiment [10] relates to Staphylococcus aureus. The experiment in a line: Antibacterial activity against Staphylococcus aureus assessed as growth inhibition after 24 hr by tube dilution method. The class given is functional.
Experiment [11] relates to Candida albicans. Briefly: Antifungal activity against Candida albicans assessed as growth inhibition after 48 hr by tube dilution method. The class given is functional.
The test system of experiment [12] is MCF7. The experiment in a line: Cytotoxicity against Homo sapiens (human) MCF7 cells assessed as growth inhibition after 72 hr by MTT assay. The class given is functional, cell-based.
Experiment [13] relates to Bacillus subtilis. The experiment in a line: Ratio of MBC to MIC for Bacillus subtilis. Type of experiment: functional.
In experiment [14] the test system is Staphylococcus aureus. Briefly: Ratio of MBC to MIC for Staphylococcus aureus. The class given is functional.
Experiment [15] has as its system Staphylococcus aureus. Briefly: Bactericidal activity against Staphylococcus aureus. Type of experiment: functional.
For experiment [16], the system named is Candida albicans. The experiment in a line: Fungicidal activity against Candida albicans. Type of experiment: functional.
The subject of experiment [17] is Escherichia coli. The experiment in a line: Antibacterial activity against Escherichia coli assessed as growth inhibition after 24 hr by tube dilution method. The class given is functional.
In experiment [18] the test system is Aspergillus niger. Briefly: Fungicidal activity against Aspergillus niger. Type of experiment: functional.

As for `Cc1ccc(C)c(NC(=O)c2ccc(/N=N\c3c[nH]c4ccccc34)cc2)c1`, the Ratio in experiment [1], in experiment [3], in experiment [6], in [13] and in experiment [14] was 3 in each case. Further, the “-logMIC” value in experiment [2] amounted to 1.47; in [9], 1.47; in experiment [10], 1.47; in experiment [11], 1.47; in [17], 1.77. Moreover, the values for the IC50 in experiment [4], in experiment [8] and in experiment [12] were 0.5435 uM/ml, “Not Active” and 0.0299 uM/ml, respectively. Moreover, the MBC in [5], in experiment [7] and in experiment [15] was more than 0.14 uM/ml in each case. The MFC in [16] was determined as 0.07 uM/ml; in experiment [18], 0.03 uM/ml.

`Cc1ccc(NC(=O)c2ccc(/N=N\c3c[nH]c4ccccc34)cc2)c(C)c1`: the Ratio in experiment [1], in experiment [3], in [6], in experiment [13] and in experiment [14] was 3 each time. Moreover, the “-logMIC” value in [2], in experiment [9], in experiment [10], in experiment [11] and in experiment [17] was 1.47 throughout. In addition, the IC50 in [4] is reported as 0.0761 uM/ml; in experiment [8], 0.1902 uM/ml; in [12], 0.087 uM/ml. The MBC in experiment [5], in experiment [7] and in experiment [15] was more than 0.14 uM/ml in each case. Also, the values for the MFC in experiment [16] and in experiment [18] were 0.14 uM/ml and 0.03 uM/ml, respectively.

As for `O=C(Nc1cccc(Cl)c1)c1ccc(/N=N\c2c[nH]c3ccccc23)cc1`, the Ratio in experiment [1], in experiment [3], in experiment [6], in experiment [13] and in [14] was 3 each time. Also, the “-logMIC” value in experiment [2], in experiment [9], in [10], in experiment [11] and in experiment [17] was 1.48 throughout. For the same molecule, the values for the IC50 in experiment [4], in [8] and in experiment [12] were 0.08 uM/ml, 0.2667 uM/ml and 0.0827 uM/ml, respectively. Further, the MBC in experiment [5], in [7] and in [15] was more than 0.13 uM/ml throughout. Moreover, the MFC in experiment [16] is recorded as more than 0.13 uM/ml; in experiment [18] it was 0.03 uM/ml.

Take `COc1ccccc1NC(=O)c1ccc(/N=N\c2c[nH]c3ccccc23)cc1`: the Ratio in experiment [1], in experiment [3], in [6], in [13] and in [14] was 3 each time. The “-logMIC” value in experiment [2], in experiment [9], in [10], in experiment [11] and in [17] was 1.47 in each case. Also, the IC50 was 0.1216 uM/ml in [4], “Not Active” in experiment [8] and 0.0865 uM/ml in experiment [12]. The MBC in experiment [5], in experiment [7] and in experiment [15] was more than 0.13 uM/ml throughout. Further, the MFC in experiment [16] came out at 0.03 uM/ml; in experiment [18] it was 0.07 uM/ml.

Consider `Cc1ccccc1NC(=O)c1ccc(/N=N\c2c[nH]c3ccccc23)cc1`, for which the Ratio in experiment [1], in experiment [3], in experiment [6], in experiment [13] and in experiment [14] was 3 in each case. In addition, the “-logMIC” value in [2] worked out at 1.45; in experiment [9] it was 1.45; in experiment [10], 1.15; in experiment [11], 1.45; in experiment [17] it was 1.45. Besides, the values for the IC50 in experiment [4], in experiment [8] and in [12] were 0.5085 uM/ml, “Not Active” and 0.0734 uM/ml, respectively. The MBC in experiment [5], in experiment [7] and in experiment [15] was more than 0.14 uM/ml each time. Also, the MFC in experiment [16] is recorded as more than 0.14 uM/ml; in experiment [18], 0.04 uM/ml.

With `O=C(Nc1ccccc1F)c1ccc(/N=N\c2c[nH]c3ccccc23)cc1`, the Ratio in [1], in [3], in [6], in experiment [13] and in experiment [14] was 3 in each case. The “-logMIC” value in [2], in experiment [9], in experiment [10], in [11] and in experiment [17] was 1.46 throughout. The IC50 in [4] is reported as 0.5587 uM/ml; in experiment [8], 0.1061 uM/ml; in experiment [12], 0.0838 uM/ml. In addition, the MBC in [5], in experiment [7] and in experiment [15] was more than 0.14 uM/ml throughout. In addition, the MFC in experiment [16] stood at 0.07 uM/ml; in [18] it was 0.03 uM/ml.

As for `O=C(Nc1ccc(Cl)cc1)c1ccc(/N=N\c2c[nH]c3ccccc23)cc1`, the Ratio in experiment [1], in experiment [3], in experiment [6], in experiment [13] and in [14] was 3 each time. Besides, the “-logMIC” value in [2], in experiment [9], in experiment [10], in experiment [11] and in experiment [17] was 1.48 throughout. The IC50 in experiment [4] was found to be 0.1867 uM/ml; in experiment [8] it was 0.08 uM/ml; in [12], 0.1067 uM/ml. Moreover, the MBC in [5], in [7] and in experiment [15] was more than 0.13 uM/ml each time. Further, the MFC is recorded as more than 0.13 uM/ml in experiment [16] and 0.13 uM/ml in experiment [18].

`O=C(Nc1ccccc1)c1ccc(/N=N\c2c[nH]c3ccccc23)cc1`: the Ratio in experiment [1], in experiment [3], in experiment [6], in experiment [13] and in [14] was 3 in each case. In addition, the “-logMIC” value in experiment [2], in [9], in experiment [10], in experiment [11] and in experiment [17] was 1.44 in each case. Also, the values for the IC50 in [4], in [8] and in experiment [12] were 0.1029 uM/ml, “Not Active” and 0.1471 uM/ml, respectively. Also, the MBC in experiment [5], in experiment [7] and in experiment [15] was more than 0.15 uM/ml throughout. The MFC is given as more than 0.15 uM/ml in [16] and 0.07 uM/ml in experiment [18].

For the molecule `O=C(Nc1ccccc1[N+](=O)[O-])c1ccc(/N=N\c2c[nH]c3ccccc23)cc1`, the Ratio in experiment [1], in experiment [3], in experiment [6], in experiment [13] and in [14] was 3 in each case. Further, the “-logMIC” value in experiment [2] was 1.49; in experiment [9], 1.79; in experiment [10] it was 1.49; in [11], 1.49; in experiment [17], 1.49. For the same molecule, the figures for the IC50 in [4], in experiment [8] and in [12] were 0.2078 uM/ml, 0.0779 uM/ml and 0.1013 uM/ml, respectively. The MBC in [5], in [7] and in experiment [15] was more than 0.13 uM/ml each time. Also, the MFC in [16] is more than 0.13 uM/ml; in [18] it was 0.03 uM/ml.

For `O=C(Nc1ccccc1Cl)c1ccc(/N=N\c2c[nH]c3ccccc23)cc1`, the Ratio in [1], in experiment [3], in experiment [6], in [13] and in experiment [14] was 3 in each case. In addition, the “-logMIC” value is recorded as 1.48 in experiment [2]; 1.48 in experiment [9]; 1.18 in [10]; 1.48 in experiment [11]; 1.78 in experiment [17]. Also, the figures for the IC50 in experiment [4], in experiment [8] and in [12] were 0.12 uM/ml, “Not Active” and 0.112 uM/ml, respectively. The MBC in experiment [5], in experiment [7] and in experiment [15] was more than 0.13 uM/ml each time. Besides, the MFC in experiment [16] is reported as more than 0.13 uM/ml; in experiment [18], 0.03 uM/ml.

Take `O=c1[nH]cc(F)c(=O)[nH]1` [FLUOROURACIL]: the IC50 in [4] is 0.0462 uM/ml; in experiment [8], 0.0219 uM/ml; in experiment [12], 0.0052 uM/ml.
